According to PubChem BioAssay AID1963844 (Molecular Pharmacology Branch, DTP, NCI, 2024):

Test system: 422866-222-R5-J1-PDC complex spheroid viability
Assay: Anticancer human tumor 422866-222-R5-J1-PDC patient-derived pancreatic adenocarcinoma cell line growth inhibition [POLQ]
Conditions: for IC50: curve of first compound; for viability, T/C: stronger effect = lower value
Summary of the method: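 PDC + HUVEC + MSC complex spheroids; POLQ inhibitors ± partner drugs; top conc. at/near clinical Cmax, else 10 microM (SN-38 1 microM), half-log dilutions; 37 degrees C, 5% CO2.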

[1] = second compound 0.0316 µM, first compound 0.00316 µM
[2] = second compound 0.0316 µM, first compound 0.01 µM
[3] = second compound 0.0316 µM, first compound 0.0316 µM
[4] = second compound 0.0316 µM, first compound 0.1 µM
[5] = second compound 0.0316 µM, first compound 0.316 µM
[6] = second compound 0.0316 µM, first compound 1 µM
[7] = second compound 0.1 µM, first compound 0.00316 µM
[8] = second compound 0.1 µM, first compound 0.01 µM
[9] = second compound 0.1 µM, first compound 0.0316 µM
[10] = second compound 0.1 µM, first compound 0.1 µM
[11] = second compound 0.1 µM, first compound 0.316 µM
[12] = second compound 0.1 µM, first compound 1 µM
[13] = second compound 0.316 µM, first compound 0.00316 µM
[14] = second compound 0.316 µM, first compound 0.01 µM
[15] = second compound 0.316 µM, first compound 0.0316 µM
[16] = second compound 0.316 µM, first compound 0.1 µM
[17] = second compound 0.316 µM, first compound 0.316 µM
[18] = second compound 0.316 µM, first compound 1 µM
[19] = second compound 1 µM, first compound 0.00316 µM
[20] = second compound 1 µM, first compound 0.01 µM
[21] = second compound 1 µM, first compound 0.0316 µM
[22] = second compound 1 µM, first compound 0.1 µM
[23] = second compound 1 µM, first compound 0.316 µM
[24] = second compound 1 µM, first compound 1 µM
[25] = second compound 3.16 µM, first compound 0.00316 µM
[26] = second compound 3.16 µM, first compound 0.01 µM
[27] = second compound 3.16 µM, first compound 0.0316 µM
[28] = second compound 3.16 µM, first compound 0.1 µM
[29] = second compound 3.16 µM, first compound 0.316 µM
[30] = second compound 3.16 µM, first compound 1 µM
[31] = second compound 10 µM, first compound 0.00316 µM
[32] = second compound 10 µM, first compound 0.01 µM
[33] = second compound 10 µM, first compound 0.0316 µM
[34] = second compound 10 µM, first compound 0.1 µM
[35] = second compound 10 µM, first compound 0.316 µM
[36] = second compound 10 µM, first compound 1 µM
[37] = second compound 0.0316 µM, first compound 3.16 µM
[38] = second compound 0.0316 µM, first compound 10 µM
[39] = second compound 0.1 µM, first compound 3.16 µM
[40] = second compound 0.1 µM, first compound 10 µM
[41] = second compound 0.316 µM, first compound 3.16 µM
[42] = second compound 0.316 µM, first compound 10 µM
[43] = second compound 1 µM, first compound 3.16 µM
[44] = second compound 1 µM, first compound 10 µM
[45] = second compound 3.16 µM, first compound 3.16 µM
[46] = second compound 3.16 µM, first compound 10 µM
[47] = second compound 10 µM, first compound 3.16 µM
[48] = second compound 10 µM, first compound 10 µM
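Also: spheroids exposed to compounds for one week before readout.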
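For viability, T/C in this document: percent of DMSO vehicle wells luminescence so 100% = untreated viability.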

Work on `CCc1c2c(nc3ccc(O)cc13)-c1cc3c(c(=O)n1C2)COC(=O)[C@]3(O)CC` + Cc1cccc(N(C)C(=O)C2C(O)CCN2c2nc(C)cc(C(F)(F)F)c2C#N)c1 yielded an IC50 (second compound 0.0316 µM) of less than 3.16 nM, an IC50 (second compound 0.1 µM) of less than 3.16 nM and an IC50 (second compound 0.316 µM) of less than 3.16 nM. For the same molecule, the IC50 (second compound 1 µM) was less than 3.16 nM, the IC50 (second compound 3.16 µM) was less than 3.16 nM and the IC50 (second compound 10 µM) was less than 3.16 nM. It also gave a viability, T/C [1] of 44.4%, a viability, T/C [2] of 37.4% and a viability, T/C [3] of 38.7%. For the same molecule, the viability, T/C [4] was 37.7%, the viability, T/C [5] was 34.4% and the viability, T/C [6] was 21.4%. It also gave a viability, T/C [7] of 49.1%, a viability, T/C [8] of 34.3% and a viability, T/C [9] of 38.9%. The viability, T/C [10] was 34.8%, the viability, T/C [11] was 34.2% and the viability, T/C [12] was 28.2%. For the same molecule, the viability, T/C [13] was 46.2%, the viability, T/C [14] was 40.4% and the viability, T/C [15] was 37.3%. It also gave a viability, T/C [16] of 38.1%, a viability, T/C [17] of 34.6% and a viability, T/C [18] of 25%. The viability, T/C [19] was 40.9%, the viability, T/C [20] was 45.4% and the viability, T/C [21] was 34.4%. For the same molecule, the viability, T/C [22] was 35.2%, the viability, T/C [23] was 40.6% and the viability, T/C [24] was 18.2%. It also gave a viability, T/C [25] of 49.7%, a viability, T/C [26] of 38.3% and a viability, T/C [27] of 35.1%. For the same molecule, the viability, T/C [28] was 34.6%, the viability, T/C [29] was 39.3% and the viability, T/C [30] was 26.4%. The viability, T/C [31] was 42.1%, the viability, T/C [32] was 40.1% and the viability, T/C [33] was 42.2%. It also gave a viability, T/C [34] of 38%, a viability, T/C [35] of 44.2% and a viability, T/C [36] of 24.6%.
For `Nc1ccn(C2OC(CO)C(O)C2(F)F)c(=O)n1` (stereo not drawn) + Nc1ccc(C#CCN(C(=O)Cc2ncc(C(F)(F)F)cc2C(F)(F)F)c2ccc(F)cc2)nn1, the IC50 (second compound 0.0316 µM) was less than 31.6 nM, the IC50 (second compound 0.1 µM) was 55.2 nM and the IC50 (second compound 0.316 µM) was 72.6 nM. It also gave an IC50 (second compound 1 µM) of 71.5 nM, an IC50 (second compound 3.16 µM) of 118 nM and an IC50 (second compound 10 µM) of 539 nM. The viability, T/C [3] was 57.9%, the viability, T/C [4] was 42.5% and the viability, T/C [5] was 28.7%. It also gave a viability, T/C [6] of 38.4%, a viability, T/C [37] of 36.9% and a viability, T/C [38] of 39.2%. It also gave a viability, T/C [9] of 62.2%, a viability, T/C [10] of 37.7% and a viability, T/C [11] of 30.6%. It also gave a viability, T/C [12] of 32.4%, a viability, T/C [39] of 38.1% and a viability, T/C [40] of 36.4%. The viability, T/C [15] was 66.8%, the viability, T/C [16] was 43.5% and the viability, T/C [17] was 30.4%. The viability, T/C [18] was 40.1%, the viability, T/C [41] was 33.2% and the viability, T/C [42] was 34.4%. It also gave a viability, T/C [21] of 75%, a viability, T/C [22] of 39.8% and a viability, T/C [23] of 36.8%. For the same molecule, the viability, T/C [24] was 34.3%, the viability, T/C [43] was 36.1% and the viability, T/C [44] was 49%. It also gave a viability, T/C [27] of 72.8%, a viability, T/C [28] of 52.5% and a viability, T/C [29] of 35.3%. For the same molecule, the viability, T/C [30] was 31.8%, the viability, T/C [45] was 34.1% and the viability, T/C [46] was 41%. For the same molecule, the viability, T/C [33] was 98.8%, the viability, T/C [34] was 67.9% and the viability, T/C [35] was 68.8%. For the same molecule, the viability, T/C [36] was 34.8%, the viability, T/C [47] was 31.7% and the viability, T/C [48] was 30.6%.
For `CC1COCCN1c1cc(-c2ccnn2C)c2ccnc(-c3ccn[nH]3)c2n1` (stereo not drawn) + Nc1ccc(C#CCN(C(=O)Cc2ncc(C(F)(F)F)cc2C(F)(F)F)c2ccc(F)cc2)nn1, the IC50 (second compound 0.0316 µM) was greater than 10000 nM, the IC50 (second compound 0.1 µM) was greater than 10000 nM and the IC50 (second compound 0.316 µM) was greater than 10000 nM. It also gave an IC50 (second compound 1 µM) of 10000 nM, an IC50 (second compound 3.16 µM) of 232 nM and an IC50 (second compound 10 µM) greater than 10000 nM. The viability, T/C [3] was 110%, the viability, T/C [4] was 52.5% and the viability, T/C [5] was 35.8%. For the same molecule, the viability, T/C [6] was 31.4%, the viability, T/C [37] was 72.4% and the viability, T/C [38] was 67.8%. It also gave a viability, T/C [9] of 112%, a viability, T/C [10] of 49.3% and a viability, T/C [11] of 44.4%. The viability, T/C [12] was 37.4%, the viability, T/C [39] was 45% and the viability, T/C [40] was 81.1%. It also gave a viability, T/C [15] of 90.7%, a viability, T/C [16] of 45.4% and a viability, T/C [17] of 33.7%. The viability, T/C [18] was 34%, the viability, T/C [41] was 68.2% and the viability, T/C [42] was 83.4%. For the same molecule, the viability, T/C [21] was 87%, the viability, T/C [22] was 62.4% and the viability, T/C [23] was 38.5%. It also gave a viability, T/C [24] of 29.9%, a viability, T/C [43] of 61.5% and a viability, T/C [44] of 73%. For the same molecule, the viability, T/C [27] was 96.6%, the viability, T/C [28] was 51.6% and the viability, T/C [29] was 32.6%. For the same molecule, the viability, T/C [30] was 29.8%, the viability, T/C [45] was 61.5% and the viability, T/C [46] was 74.2%. It also gave a viability, T/C [33] of 102%, a viability, T/C [34] of 41.1% and a viability, T/C [35] of 39.6%. The viability, T/C [36] was 36.2%, the viability, T/C [47] was 79.8% and the viability, T/C [48] was 74.8%.
`CCc1c2c(nc3ccc(O)cc13)-c1cc3c(c(=O)n1C2)COC(=O)[C@]3(O)CC` + COC1C(OC(N)=O)C(O)C(Oc2ccc3c(O)c(NC(=O)c4ccc(O)c(CC=C(C)C)c4)c(=O)oc3c2C)OC1(C)C showed an IC50 (second compound 0.0316 µM) of less than 3.16 nM, an IC50 (second compound 0.1 µM) of less than 3.16 nM and an IC50 (second compound 0.316 µM) of less than 3.16 nM. For the same molecule, the IC50 (second compound 1 µM) was less than 3.16 nM, the IC50 (second compound 3.16 µM) was less than 3.16 nM and the IC50 (second compound 10 µM) was less than 3.16 nM. It also gave a viability, T/C [1] of 44.1%, a viability, T/C [2] of 34.4% and a viability, T/C [3] of 33.4%. The viability, T/C [4] was 30.8%, the viability, T/C [5] was 28.7% and the viability, T/C [6] was 19.7%. For the same molecule, the viability, T/C [7] was 41.3%, the viability, T/C [8] was 34.8% and the viability, T/C [9] was 32%. It also gave a viability, T/C [10] of 30.6%, a viability, T/C [11] of 34.6% and a viability, T/C [12] of 18.6%. It also gave a viability, T/C [13] of 41.1%, a viability, T/C [14] of 35.9% and a viability, T/C [15] of 30.9%. It also gave a viability, T/C [16] of 29.6%, a viability, T/C [17] of 32.9% and a viability, T/C [18] of 16.7%. The viability, T/C [19] was 41.8%, the viability, T/C [20] was 30.9% and the viability, T/C [21] was 30.5%. For the same molecule, the viability, T/C [22] was 33.8%, the viability, T/C [23] was 32.6% and the viability, T/C [24] was 19%. For the same molecule, the viability, T/C [25] was 41%, the viability, T/C [26] was 34.8% and the viability, T/C [27] was 36%. The viability, T/C [28] was 32.7%, the viability, T/C [29] was 34.3% and the viability, T/C [30] was 22.5%. For the same molecule, the viability, T/C [31] was 39.4%, the viability, T/C [32] was 34.2% and the viability, T/C [33] was 31.6%. The viability, T/C [34] was 32.1%, the viability, T/C [35] was 31.1% and the viability, T/C [36] was 19.9%.
